The values below come from patent US4123544A, “Acetylsalicylic acid derivatives” (priority 1977, dated 1978).

In data set [1] the test system is gastric ulcers. The note with it: administered orally; known disadvantage; cited from earlier work.
Data set [2] has as its system rats. The experiment in a line: Analgesic activity, Randall-Selitto test on rats. The format is in vivo. The text has this:
The analgesic activity of 1-o-acetoxybenzoyl-L-proline was studied on rats by means of the Randall-Selitto test (Arch. int. Pharmacodyn., 1957, 111, 409, 419).

Data set [3] is described as follows: Solubility in water. The format is physicochemical.
Data set [4] has as its system carrageenin-induced oedema. The experiment in a line: Anti-inflammatory activity, carrageenin-induced oedema test on rats (intramuscular). The format is in vivo. The note with it: for % inhibition / % Variation in the volume of the oedema: 3 hours; for % Variation in the volume of the oedema: comparisons 107.39 ± 5.19. The protocol:
The anti-inflammatory activity of 1-o-acetoxybenzoyl-L-proline was studied by means of the carrageenin-induced oedema test on rats. In this test, the antiinflammatory activity of the compound according to the invention was compared with that of an injectable aspirin, namely lysine acetylsalicylate.
the compounds were injected intramuscularly, 30 minutes before the carrageenin. The volume of the oedema was measured three hours afterwards.

Data set [5] can be described thus: acute toxicity, intraperitoneal administration to mice. The note with it: mouse, in vivo, ip. The text has this:
The LD50 of the compound according to the invention, when administered intraperitoneally to mice, was about 10g/kg, whilst it was about 3g/kg for lysine acetylsalicylate.

Data set [6] concerns phenylbenzoquinone cramping. The experiment in a line: Analgesic activity, phenylbenzoquinone cramping test. The data set is classed as in vivo. As to conditions: oral; for Percentage change in number of cramps versus control / Number of cramps / Percentage inhibition relative to the control animals: 2 hours before test; for Number of cramps: control 449. The protocol: The analgesic activity of 1-o-acetoxybenzoyl-4-hydroxy-L-proline was studied by means of the phenylbenzoquinone cramping test, in comparison with the same injectable aspirin as that used in Example 2, the two compouns being administered orally 2 hours before the test on groups of 10 animals; a control group of animals to which neither compound was administered was also used.

The subject of data set [7] is hyperthermia caused by the injection of brewer's yeast. The experiment in a line: Antipyretic activity, hyperthermia caused by injection of brewer's yeast. The format is in vivo, rats. As to conditions: intraperitoneal; for central temperature: 200 mg to 400 mg/kg, 37.28 ± 0.052 at Ho. On the procedure: The antipyretic activity of 1-o-acetoxybenzoyl-4-hydroxyl-L-proline was assessed by the hyperthermia caused by the injection of brewer's yeast 17 hours before the start of the experiment (groups of 8 rats + 1 comparison group without yeast). The first temperature measurement was made at time Ho and the compounds to be tested were then administered intraperitoneally. The central temperature was then checked 1 hour 30 minutes, 3 hours and 4 hours 30 minutes after Ho.

For data set [8], the system named is mice. The experiment in a line: acute toxicity on intravenous administration to mice. The format is in vivo. The text has this:
(§1) acute toxicity on intravenous administration to mice
(§2) The acute toxicity of 1-o-acetoxybenzoyl-4-hydroxy-L-proline was investigated by comparison with an injectable aspirin, namely lysine acetylsalicylate. The acetylsalicylic acid content of the two compounds was substantially the same (about 50%).
(§3) (Intravenous administration to mice)
(§4) *x/5: number of dead animals amongst 5 animals tested.

For data set [9], the system named is carrageenin-induced plantar oedema. The data set can be described thus: Anti-inflammatory activity, carrageenin-induced plantar oedema test on rats (intraperitoneal). The data set is classed as in vivo. As to conditions: for percentage variation in volume, (V2 - V1)/V1 × 100, individual rats: 200 mg/kg (expressed as weight of compound); for percentage variation in volume, (V2 - V1)/V1 × 100, individual rats / percentage variation in volume, mean (X): 3 hours; for percentage variation in volume, mean (X): controls 88.22% ± 10.5; for Percentage variation: mean oedema versus controls. The protocol: The anti-inflammatory activity of 1-o-acetoxybenzoyl-4-hydroxy-L-proline was studied by means of the carrageenin-induced plantar oedema test on rats.
[…] of each rat in three groups of 8 to 9 rats was injected with carrageenin at time Ho. The first group was a control group and the second and third groups were test groups. The volume (V1) of the paw was then measured, and the compounds to be tested were administered intraperitoneally. The volume (V2) of the same paw was measured again three hours later.

Data set [10] in a line: acute toxicity on intravenous administration to mice. The data set is classed as in vivo. As to conditions: mouse, in vivo; intravenous, mice.
From the text: as §1, §2, §3, §4

Data set [11] is described as follows: acute toxicity, oral administration to mice. The note with it: mouse, in vivo, orally.
The mark [12] stands for this setting: 50 mg/kg (expressed as weight of compound).
The mark [13] stands for this setting: 100 mg/kg (expressed as weight of compound).
Setting [14] is: 50 mg/kg (expressed as acetylsalicylic acid).
The mark [15] stands for this setting: 100 mg/kg (expressed as acetylsalicylic acid).

Structures are written as SMILES. ≈ marks a conversion by molar mass, not a printed value. Where “and” joins values, the source holds several entries; their conditions need not be identical. Identical values can stand only once. Like-named read-outs stand apart in the source and are kept apart here.

Consider `CC(=O)Oc1ccccc1C(=O)O` [acetylsalicylic acid], for which, in [1], the ulcerogenic activity result was “ulcerogenic”.
As for `CC(=O)Oc1ccccc1C(=O)N1CCC[C@H]1C(=O)O` [1-o-acetoxybenzoyl-L-proline], the Inhibition % in data set [2] (50 mg/kg, 1 hour) worked out at 59.49%; in [2] (50 mg/kg, 2 hours), 67.57%; in data set [2] (50 mg/kg, 4 hours), 44.00%; in data set [2] (100 mg/kg, 1 hour), 74.68%; in data set [2] (100 mg/kg, 2 hours), 89.19%; in [2] (100 mg/kg, 4 hours), 53.33%. Also, the Inhibition % in data set [2] (200 mg/kg, 1 hour) was 98.73%; in data set [2] (200 mg/kg, 2 hours) it was 130.98%; in data set [2] (200 mg/kg, 4 hours), 104.01%. Also, the “analgesic activity (in words)” value in [2] (dose of 100 mg) is “comparable to that of lysine acetylsalicylate used at medium doses”. For the same molecule, the concentration in solution in data set [3] (solubility) was 50 mg/mL (≈ 180 mM). In addition, the results for the “% inhibition” value in [4] (50 mg/kg), in [4] (100 mg/kg) and in data set [4] (200 mg/kg) were 2.48%, 23.97% and 29.50%, respectively. The “% Variation in the volume of the oedema” value in data set [4] (50 mg/kg) is on record as 104.73 ± 7.23%; in data set [4] (100 mg/kg), 81.65 ± 5.97%; in data set [4] (200 mg/kg), 75.71 ± 4.8%. For the same molecule, the “antiinflammatory activity (in words)” value in data set [4] (dose of 100 mg) is recorded as “comparable to that of lysine acetylsalicylate used at medium doses”.
`CC(=O)Oc1ccccc1C(=O)N1CC(O)C[C@H]1C(=O)O` (stereo partly drawn) [1-o-acetoxybenzoyl-4-hydroxy-L-proline] showed a 50% lethal dose (LD50) in [5] of about 10000 mg/kg. In [3] (pH = 3), this molecule registered a solubility of about 50 mg/mL (≈ 170 mM). Also, the “Percentage change in number of cramps versus control” value in data set [6] (setting [12]) is reported as -12%; in data set [6] (setting [13]), -57%. Besides, the Number of cramps in data set [6] (setting [12]) was 396; in data set [6] (setting [13]), 194. Further, the “analgesic activity relative to the injectable aspirin” value in [6] (phenylbenzoquinone test) is reported as “practically twice that of the injectable aspirin”. Also, the figures for the central temperature in data set [7] (1 hr 30 mins after Ho), in data set [7] (3 hrs after Ho) and in [7] (4 hrs 30 mins after Ho) were 36.12 °C, 36.40 °C and 36.82 °C, respectively. In data set [7] (versus injectable aspirin), the “antipyretic activity (in words)” value is recorded as “greater than that of the injectable aspirin”. For the same molecule, in data set [8] (intravenous, mice), the “toxicity (in words)” value is reported as “substantially non-toxic”. Further, the “number of dead animals amongst 5 animals tested” value is 0/5 in [8] (intravenous, mice, 700 mg/kg); 0/5 in data set [8] (intravenous, mice, 1,500 mg/kg); 0/5 in data set [8] (intravenous, mice, 3,000 mg/kg); 0/5 in data set [8] (intravenous, mice, 4,000 mg/kg). Also, in data set [8] (mouse, in vivo, iv), the immediate symptoms entry is on record as “practically no symptoms”. The “percentage variation in volume, (V2 - V1)/V1 × 100, individual rats” value in data set [9] (listed as Compound according to the invention) is 63.6% and 64% and 82.5% and 82.3% and 63.5% and 61.6% and 67.4% and 53.7% and 60.9%. In addition, the “percentage variation in volume, mean (X)” value in data set [9] (200 mg/kg) amounted to 66.61 ± 9.7%. Besides, the “anti-inflammatory activity (in words)” value in data set [9] (200 mg/kg, versus injectable aspirin) was “very good anti-inflammatory activity, markedly superior to that of the injectable aspirin”. Also, the Percentage variation in data set [9] (200 mg/kg) is recorded as -24%.
For `CC(=O)Oc1ccccc1C(=O)O` [Lysine acetylsalicylate, lysine acetylsalicylate, reference compound], the LD50 in data set [5] (intraperitoneally, mice, read-out: LD50) was about 3000 mg/kg; in [10], about 2000 mg/kg; in [11] it was 3000 mg/kg. Further, the Inhibition % in data set [2] (50 mg/kg, 1 hour) is recorded as 72.98%; in data set [2] (50 mg/kg, 2 hours), 60.26%; in [2] (50 mg/kg, 4 hours), 65.79%; in data set [2] (100 mg/kg, 1 hour) it was 85.14%; in data set [2] (100 mg/kg, 2 hours) it was 97.44%; in data set [2] (100 mg/kg, 4 hours), 73.68%. Further, the Inhibition % was determined as 105.40% in [2] (200 mg/kg, 1 hour); 124.36% in data set [2] (200 mg/kg, 2 hours); 111.84% in [2] (200 mg/kg, 4 hours). For the same molecule, the “Percentage inhibition relative to the control animals” value in data set [6] (setting [14]) is recorded as -14%; in data set [6] (setting [15]) it was -56%. The figures for the Number of cramps in [6] (setting [14]) and in [6] (setting [15]) were 386 and 196, respectively. Further, the results for the “% inhibition” value in data set [4] (50 mg/kg), in data set [4] (100 mg/kg) and in data set [4] (200 mg/kg) were 16.74%, 27.56% and 41.76%, respectively. Further, the “% Variation in the volume of the oedema” value is 89.41 ± 9.39% in [4] (50 mg/kg), 77.79 ± 5.39% in data set [4] (100 mg/kg) and 62.54 ± 6.83% in data set [4] (200 mg/kg). The values for the central temperature in [7] (1 hr 30 mins after Ho), in data set [7] (3 hrs after Ho) and in [7] (4 hrs 30 mins after Ho) were 36.64 °C, 36.92 °C and 36.90 °C, respectively. The immediate symptoms entry in data set [8] (intravenous, mice) was “pronounced, with depression, ataxia and convulsions occurring”. Also, the “number of dead animals amongst 5 animals tested” value in data set [8] (intravenous, mice, 1,500 mg/kg) was 0/5; in [8] (intravenous, mice, 2,000 mg/kg) it was 5/5; in [8] (intravenous, mice, 3,000 mg/kg), 3/5; in data set [8] (intravenous, mice, 3,500 mg/kg) it was 5/5. For the same molecule, in [9] (listed as Injectable aspirin), the “percentage variation in volume, (V2 - V1)/V1 × 100, individual rats” value was 74.4% and 83.3% and 70.7% and 68.3% and 87.5% and 61% and 85% and 64%. In data set [9] (200 mg/kg), the “percentage variation in volume, mean (X)” value is 74.29% ± 9.36. Further, the Percentage variation in data set [9] (200 mg/kg) is reported as -16%.
